According to patent US20150173358A1, “HERBICIDAL COMPOSITIONS CONTAINING IMAZAPIC, AMINOPYRALID AND OPTIONALLY METSULFURON” (DOW AGROSCIENCES LLC, priority 2013, published 2015):

Tested on: BOIVE: whitehead broom (Borerria verticillata)
Assay: Postemergence herbicidal activity of mixtures in the field (visual weed control)
Format: in vivo
Description: Field trials were conducted in Brazil in pasture area cultivated with Brachiaria brizantha using standard herbicide small-plot research methodology. The plot size used was 3×8 meter (m; width×length) with 4 replicates per treatment. The pasture was grown using normal cultural practices for fertilization, management, and maintenance to ensure good growth of the crop and the weeds.
All treatments in the field trials were applied using a carbon dioxide (CO2) backpack air sprayer with flat fan nozzles (110.03°), calibrated to apply 250 liters per hectare (L/ha) spray volume at approximately 35 pounds per square inch (PSI). Formulations of aminopyralid (triisopropanolammonium salt) at 100 grams acid equivalent per hectare (g ae/ha) and aminopyralid (potassium salt, 525grams acid equivalent per kilogram (g ae/kg))+metsulfuron-methyl (94.5 grams active ingredient per kilogram (g ai/kg)) at 118 grams per hectare (g/ha) were mixed with imazapic at 70 and 140 g ae/ha and water+Joint Mineral Oil at appropriate formulated product rates to achieve the desired rates based on a unit area of application (hectare) as shown. Treatments were rated at 15 to 281 days after application (DAA) as compared to the untreated control plants. Visual weed control of BOIVE was scored on a scale of 0 to 100 percent where 0 corresponds to no injury and 100 corresponds to complete kill.
All treatment results, both for the single product and mixtures, are an average of 3 to 4 replicates and the tank-mix interactions are significant at the […] level.
Colby's equation was used to determine the herbicidal effects expected from the mixtures (Colby, S.R. Calculation of the synergistic and antagonistic response of herbicide combinations. Weeds 1967, 15, 20-22). […]
The experiments described herein in Table 2 were performed such that the “B” component in Colby's equation was the activity for the combination of aminopyralid and metsulfuron and only the activity for the combination was determined. […]

Structure (SMILES) | % Visual Control BOIVE (281 DAA) Obs (Imazapic (ammonium salt) 70 g ae/ha alone, postemergence field trial, Brazil pasture) [%] | % Visual Control BOIVE (281 DAA) Obs (Imazapic (ammonium salt) 140 g ae/ha alone, postemergence field trial) [%] | % Visual Control BOIVE (281 DAA) Obs (Aminopyralid (triisopropanolammonium salt) 100 g ae/ha alone) [%]
Cc1cnc(C2=NC(C)(C(C)C)C(=O)N2)c(C(=O)O)c1 (racemic) [Imazapic, (±)-2-[4,5-dihydro-4-methyl-4-(1-methylethyl)-5-oxo-1H-imidazol-2-yl]-5-methyl-3-pyridinecarboxylic acid] | 0 | 14 | 
Nc1cc(Cl)nc(C(=O)O)c1Cl [Aminopyralid, 4-amino-3,6-dichloro-2-pyridinecarboxylic acid] |  |  | 41
